Test results: patent publication US20240415801A1, “Methods and Compositions for Treating Fibroids” (Lundquist Institute for Biomedical Innovation at …, priority 2023, published 2024)

Key:
human fibroid xenograft = experiment: Human fibroid xenograft mouse model, tumor weight (Example 1); type: in vivo, ovariectomized CB-17 SCID/Beige mice; conditions: 20 mg/kg daily i.p., two months (8 weeks), vs matched vehicle
Source text: Portions of intramural uterine fibroids (2-5 cm diameter) were obtained from hysterectomies performed at Harbor-UCLA Medical Center for symptomatic fibroids (n=10). Prior approval was secured from the Institutional Review Board (18CR-31752-01 R) at the Lundquist Institute. Tissues were exclusively sourced from premenopausal patients who had not been treated with hormonal medications for at least 3 months before surgery. The fibroids used in this study were sourced from African American (n=2) and Hispanic (n=8) women aged between 35-50 years (mean 43±4.8 years). The MED12 mutation status of all fibroids was determined by PCR amplification and Sanger sequencing (Laragen Inc., Culver City, CA, USA). […] Informed consent was obtained from all participants. A segment of each tumor was allocated for in vivo studies, and the remaining tissues were promptly snap-frozen and stored in liquid nitrogen for further analysis as previously described. This selection process for tumors was aimed at minimizing variance among fibroids.

fibroid xenografts [1] = experiment: Quantitative RT-PCR of xenografts (Example 2); type: in vivo, SCID/Beige mice; conditions: 5 mg/kg, 8 weeks, n=13
Experimental: Total RNA was extracted from the xenografts using TRIzol (Thermo Fisher Scientific Inc., Waltham, MA). RNA concentration and integrity was determined using a Nanodrop 2000c spectrophotometer (Thermo Scientific, Wilmington, DE) and Agilent 2100 Bioanalyzer (Agilent Technologies, Santa Clara, CA) as previously described (7, 8). Briefly, 2 μg of RNA was reverse transcribed using random primers for selected genes according to the manufacturer's guidelines (Applied Biosystems, Carlsbad, CA). Quantitative RT-PCR was carried out using SYBR gene expression master mix (Applied Biosystems). Reactions were incubated for 10 min at 95° C. followed by 40 cycles for 15 seconds at 95° C. and 1 min at 60° C. The expression levels of selected genes were quantified using Invitrogen StepOne System with FBXW2 (F-box and WD repeat domain containing 2) used for normalization (9). All reactions were run in triplicate and relative mRNA expression was determined using the comparative cycle threshold method (2−ΔΔCq), as recommended by the supplier (Applied Biosystems). Values were expressed as fold change compared to the control group. […]

fibroid xenografts [2] = experiment: Immunoblotting of fibroid xenografts (Example 1); type: in vivo, SCID/Beige mice; conditions: 20 mg/kg daily, 8 weeks
Source text: Protein extracted from the xenografts underwent immunoblotting as previously described. Primary antibodies targeting COL3A1, FN1, SPARC, TDO2, and Cleaved Caspase 3 were purchased from Proteintech Group, Inc. (Chicago, IL, USA). Band densities of specific proteins were quantified using the Image J program (http://imagej.nih.gov/ij/), and normalized to a Ponceau S staining band on the membrane. Results were expressed as means±SEM, and are presented as ratios relative to the control group, designated as 1.

fibroid xenografts [3] = experiment: Quantitative RT-PCR of fibroid xenografts (Example 1); type: in vivo, SCID/Beige mice; conditions: 20 mg/kg daily, 8 weeks
Experimental: Quantitative RT-PCR was performed as previously described. Selected gene expression levels were assessed utilizing the Invitrogen StepOne System, with normalization against 18S. Triplicate reactions were conducted, and relative mRNA expression was calculated using the comparative cycle threshold method (2−ΔΔCt), with results presented as fold change relative to the control group. The primer sequences used are shown in the following Sequence Table: […]

Question: With Cc1ccc(S(=O)(=O)/C=C/C#N)cc1 [Bay 11-7082] as the molecule, how does the “reduction of tumor weight” value (human fibroid xenograft) read?
Answer: Its value is 50%.

Question: And the “mRNA expression of COL1A1, COL3A1, FN1, TGF-β3, CCND1, CDK2, E2F1, EZH2, MyD88 and SPARC” value (fibroid xenografts [1])?
Answer: The value was “significant decrease”.

Question: And the “protein abundance of COL3A1, FN1, SPARC, TDO2 (Western blot)” value (fibroid xenografts [2])?
Answer: The value was “inhibited”.

Question: What about the “expression of miR-29c and miR-200c” value (fibroid xenografts [3]) of the same molecule?
Answer: Its value is “significant increase”.

Question: And the “mRNA expression of SPARC, TDO2, MYD88, TLR6, TLR3, IL6, TNFα, TNFRSF11A, IL1β, COL3A1, FN1, LOX, TGFB3, CCND1, E2F1, CKS2, PRL, ESR1, PGR, VEGFC, PDGFA, HTR1B” value (fibroid xenografts [3]; n=10)?
Answer: The value was “significant decrease”.
